From US20150150909A1, “ANTI-GLYCATION METHODS AND COMPOSITIONS” (CORE INTELLECTUAL PROPERTIES HOLDINGS, LLC, priority 2007, published 2015)
“And” between values parts separate entries of the source, which are not always exact repeats. Equal entries are not always repeated.

Columns and labels:
[1] = system: human dermal fibroblasts from a donor; assay: MTT mitochondrial metabolism assay (Example 3); format: cell-based
Procedure: The objective of this assay was to test the effect of mineral extract compositions (6 lots) on the mitochondrial metabolism in a cell culture population, using MTT assay. MTT assay measures the activity of succinate dehydrogenase, a key enzyme in the respiratory electron transport chain is mitochondria (Berridge & Tan, 1993).
Mineral extract compositions were diluted in type I sterile water to 10 mg/ml, sterilized by 0.22 micron filtration and incubated at dilutions 500 ug/ml, 50 ug/ml and 5 ug/ml and 0.5 ug/ml with 2,500 human dermal fibroblasts from a donor (Cascade Biologics, lot #061215-901) per well for 72 h in high glucose DMEM medium with 2.5% calf serum.
For mitochondrial metabolism measurement, at the end of the experiment, MTT (3-(4,5-dimethylthiazol-2-yl)-2,5-diphhenyltetrazolium bromide, Sigma cat. #M 5655) was added to cell cultures and incubated for 2 h. Culture media were then discarded and intracellular MTT reduction product formazan was solubilized in 100% DMSO. The colorimetric signal proportional to the mitochondrial activity in the cell cultures was measured with the BioRad microplate spectrophotometer 3550-UV at 570 nm.
The mitochondrial metabolism was standardized with regard to cell numbers by establishing the ratio of the two corresponding signals.

[2] = system: adult human dermal fibroblasts (aHDF); assay: Type I collagen sandwich ELISA in aHDF conditioned medium (Example 9); format: cell-based; conditions: all concentrations tested (0.5%, 0.1%, 0.05%, 0.01% w:v); 72 h
Procedure: A mineral extract composition (TL), Lot #100-151106, ˜3% Solution, and a mogroside/mineral extract composition as taught herein (SS II), mogrosides of Luo Han Guo Extract (Luo HG, Lot #MOG01-060502), Erythritol (Eryt, Lot #07241BP952) and Xylitol (Xylit, Lot #H125T7G1) were tested in the assay. All test materials were kept at room temperature. […] Water was the non-treated control and magnesium ascorbyl phosphate (MAP cat. #A8960, Sigma, St. Louis, Mo.) was the positive control. Cell culture conditioned media were harvested 72 h after the start of the experiment and tested for type I collagen by sandwich ELISA using affinity-purified antibodies, followed by streptavidin-avidin-HRP conjugate and ABTS, according to standard ELISA protocol (Dobak et al., 1994, Zhao et al, 2005). The colorimetric signal proportional to collagen content was measured with the BioRad microplate spectrophotometer 3550-UV at 405 nm.

[3] = system: albumin; assay: AGE formation in the albumin/glucose model system (Example 11); format: biochemical
Procedure: Mineral extract composition (TL, ˜3% Solution) and a mogroside/mineral extract composition (SS II), Luo Han Guo Extract (L, Lot #MOG01-060502), Erythritol (E, Lot #07J241BP952) and Xylitol (X, Lot #H125T7G1) were kept at room temperature. […] The positive inhibitor control was aminoguanindine hydrochloride (AG) at 1 mM, (Sigma 396494). Protein glycation was detected by the increase of non-tryptophan fluorescence (excitation at 360 nm, emission at 460 nm) using microplate fluorometer Cytofluor 2350 (Millipore), as previously described (Argirova and Argirov, 2003). The glycation value for each experimental point was obtained by subtracting the background reading (samples without glucose) and was expressed as % of control (water).

[4] = system: Clostridium collagenase IV; assay: Metalloproteinase (collagenase) activity, Enzcheck quenched fluorescent gelatin (Example 5); format: biochemical; conditions: 100 ug/ml; positive control
Procedure: Metalloproteinase (MP) (collagenase) activity was measured with Enzcheck kit from Molecular Probes (Invitrogen, IL) using quenched fluorescent gelatin and Clostridium collagenase IV, a generic metalloproteinase. Mineral extract composition, in dilutions of 500 ug/ml, 50 ug/ml and 5 ug/ml and 0.5 ug/ml, were incubated in the presence of collagenase substrate-quenched fluorescin-linked gelatin and in the presence of the proteolytic enzyme collagenase. Phenanthroline, a potent MP inhibitor was used as positive control at 100 ug/ml. The kinetics of the release of the digested, fluorescent gelatin were measured at excitation/emission wavelengths of 485/530 nm with Millipore Cytofluor 2350 microfluorometer.

[5] = system: Normal human dermal fibroblasts; assay: Type I collagen sandwich ELISA in fibroblast conditioned medium (Example 4); format: cell-based; conditions: positive control; 5 days; FIG. 3
Procedure: Normal human dermal fibroblasts (passage 7, lot #7F1254, Cambrex, Walkersville, Md.) were seeded in a 96-well plate (plate #431) in DMEM medium (high glucose) containing 5% fetal calf serum, and grown to late subconfluent stage. Aqueous solutions of mineral extract composition were prepared in sterile Type I water and added to cell cultures at 1/20 dilution. Water was the non-treated control and magnesium ascorbyl phosphate (MAP cat. #A8960, Sigma, St. Louis, Mo.) was the positive control. Cell culture conditioned media were harvested 5 days after the start of the experiment and tested for type I collagen by sandwich ELISA using affinity-purified antibodies, followed by streptavidin-avidin-HRP conjugate and ABTS, according to standard ELISA protocol (Dobak et al., 1994, Zhao et al, 2005).
The colorimetric signal proportional to collagen content was measured with the BioRad microplate spectrophotometer 3550-UV at 405 nm. See FIG. 3, Effect of mineral extract composition on type I collagen in HDF-conditioned medium.

[6] = system: human dermal fibroblasts; assay: MTT mitochondrial metabolism assay (Example 10); format: cell-based
Source text: The objective of this Example was to test the effect of 4 samples: A mogroside/mineral extract composition (Labeled—1 in FIG. 6A), mineral extract composition (Labeled—2 in FIG. 6A), Sucralose liquid concentrate (Labeled—3 in FIG. 6A) and erythritol (Labeled—4 in FIG. 6A) on the mitochondrial metabolism I fibroblast populations, using MTT assay. MTT assay measures the activity of succinate dehydrogenase, a key enzyme in the respiratory electron transport chain in mitrochondria (Berridge & Tan, 1993).
Test materials-were mogroside/mineral extract composition as made above in Example 9, mineral extract composition (˜3% Solution), Sucralose Liquid Concentrate (25% Sucralose by weight)—lot #F2304B311LB and Erythritol (25% Aqueous Solution)—lot #RFA 2104-35, and were kept at room temperature. Materials were diluted in type I sterile water, filtered through a 0.22μ filter and assayed at final concentrations of 2.5%, 0.5% and 0.05% (v:v) on human dermal fibroblasts (Invitrogen) for 72 h in high glucose DMEM medium with 5% calf serum.
In order to measure mitochondrial metabolism in whole cell populations, at the end of the experiment, MTT (3-(4,5-dimethylthiazol-2-yl)-2,5-diphenyltetrazolium bromide, Sigma cat. #M 5655) was added to cell cultures and incubation was continued for an additional 2 hours. Culture media were then discarded and intracellular MTT reduction product formazan was solubilized in 90% isopropanol. The colorimetric signal proportional to the mitochondrial activity in the cell cultures was measured with the BioRad microplate spectrophotometer 3550-UV at 570 nm.

[7] = system: albumin; assay: Albumin/glucose anti-glycation assay (Example 1); format: biochemical; conditions: 1 mM; positive control; FIG. 1
Procedure: Each reaction mixture contained 10 mg/ml albumin (Sigma) in PBS with 500 mM glucose (Sigma G8270) in PBS. The negative control was 10 mg/ml albumin without glucose. A negative control was used for each experimental point. The positive control was 10 mg/ml albumin with 500 mM glucose with 1 mM aminoguanidine hydrochloride (Sigma 396494).
Each mineral extract composition was diluted in type I sterile water to 10 mg/ml sterilized by 0.22 micron filtration and incubated at dilutions 100 ug/ml, 10 ug/ml, 1 ug/ml and 0.1 ug/ml with the reaction mixture with or without glucose for 11 days at 37° C. in the presence of sodium azide.
Protein glycation was detected by the increase of non-tryptophan fluorescence (excitation at 360 nm, emission at 460 nm) using microplate fluorometer Cytofluor 2350 (Millipore), as described (Argirova and Argirov, 2003). The glycation value for each experimental point was obtained by subtracting the background reading (samples without glucose).

[8] = system: Normal human dermal fibroblasts (NHDF); assay: AGE in extracellular matrix collagen of glucose-treated NHDF, anti-AGE antibody spot blot (Example 2); format: cell-based; conditions: 1 mg/ml; for Intensity (AU): single replicates, hydrochloride
Procedure: Normal human dermal fibroblasts (NHDF) were cultivated in conditions that allow the synthesis of high amounts of extracellular matrix (ECM). NHDF were grown to confluence in normal medium in adequate format. Vitamin C was added to the media to induce matrix synthesis/deposition Cells were treated, (or not treated for the negative control) by three concentrations of the mineral extract composition or by a reference compound for a positive control (aminoguanidine). All the conditions were performed in triplicate. An excess of glucose was added to the cells and the cells were incubated at 37° C. for 15 days. At the end of the time, ECM proteins (mainly collagen) were extracted and purified and a fraction of each sample was loaded onto nitrocellulose in reproducible spots. The introduction of AGEs in collagen was shown using an anti-AGE antibody and it was labeled using a peroxidase conjugate and chemiluminescent reaction (ECL). Relative signal qualification was performed using a chemiluminescense imager.

[9] = 2.5%, 0.5% and 0.05% (v:v), 72 h, FIG. 6A

CN(CC(=O)O)C(=N)N [creatine]
stimulation of mitochondrial metabolism ([1]; 500 ug/ml, 72 h): 6.3%

OC[C@@H](O)[C@H](O)[C@@H](O)CO [Xylitol]
collagen-stimulatory activity [2]: no significant activity
glycation-inhibitory effect ([3]; all concentrations tested (0.5%, 0.1%, 0.05%, 0.01% w:v), FIG. 7): no effect

c1cnc2c(c1)ccc1cccnc12 [phenanthroline, Phenanthroline]
MP activity [4]: totally inhibited

O=C1O[C@H]([C@@H](O)CO)C([O-])=C1OP(=O)([O-])[O-].O=C1O[C@H]([C@@H](O)CO)C([O-])=C1OP(=O)([O-])[O-].[Mg+2].[Mg+2].[Mg+2] [MAP, magnesium ascorbyl phosphate]
stimulation of collagen I [5]: Strong stimulation

OC[C@H]1O[C@H](O[C@]2(CCl)O[C@H](CCl)[C@@H](O)[C@@H]2O)[C@H](O)[C@@H](O)[C@H]1Cl [Sucralose]
effect on mitochondrial metabolism (MTT) [6, 9]: inhibited cell metabolism

Cl.N=C(N)NN [Aminoguanidine, aminoguanidine hydrochloride]
inhibitory activity on albumin glycation [7]: good inhibitory activity
% Control ([8]; First membrane): 62%
Average ([8]; First membrane): 33454 AU
Intensity (AU) ([8]; First membrane): 38328 AU and 37316 AU and 24719 AU
% Control ([8]; Membrane 2): 64%
Average ([8]; Membrane 2): 38752 AU
Intensity (AU) ([8]; Membrane 2): 38464 AU (2×) and 41333 AU (2×) and 36460 AU (2×)
glycation-inhibitory activity ([3]; 1 mM, positive inhibitor control): strong glycation-inhibitory activity

bFGF: basic fibroblast growth factor, positive control
sensitivity of fibroblast mitochondrial metabolism ([1]; results not shown): not sensitive
effect on mitochondrial metabolism (MTT) ([6]; 15 nM, positive control): metabolic stimulation

OC[C@@H](O)[C@@H](O)CO [Erythritol]
collagen-stimulatory activity [2]: no significant activity
effect on mitochondrial metabolism (MTT) [6, 9]: no activity
glycation-inhibitory effect ([3]; at lower concentrations): moderate inhibitory effect
